The source of these data is patent US20250195679A1, “ANTIBODY-DRUG CONJUGATE AND USE THEREOF” (SHANGHAI HUAOTA BIOPHARMACEUTICAL CO., LTD., priority 2022, published 2025).

Assay [1] relates to MDA-MB-231 human breast cancer cells. As to the kind of experiment: MDA-MB-231 triple-negative breast cancer CDX mouse efficacy model (Example 8). It counts as in vivo, NPG mice. The settings on record: 5 mg/kg i.p. BIW, 8 doses, FIG. 8. As to the method:
NPG mice were used to establish an MDA-MB-231 triple-negative breast cancer animal model for assaying the efficacy of the test antibodies. The MDA-MB-231 human breast cancer cells used in this example were incubated in an L-15 medium supplemented with 10% FBS in an incubator at 37° C. without CO2. Before continuous cell culturing for ten generations, about 5.0×10^6 MDA-MB-231 cells were suspended in 100 μL of PBS and then mixed uniformly with an equal volume of Matrigel. The mixture was then inoculated by subcutaneous injection into NPG humanized mice on the right side of the back near the axilla, with an inoculation volume of about 200 μL. The mice were anesthetized with 2%-5% isoflurane prior to the inoculation. On the day of inoculation, 1.0×10^7 PBMCs (100 μL) were injected via the tail vein. When the tumors grew to an average size of about 50-80 mm^3, the […] tumor-bearing mice were randomly divided into 7 groups of 6 based on tumor volume and body weight. […] Oleclumab is an anti-CD73 monoclonal antibody developed by AstraZeneca, currently in Phase 2 clinical trials. The amino acid sequence of the heavy chain of 900201 is as set forth in SEQ ID NO. 43, and the amino acid sequence of the light chain of 900201 is as set forth in SEQ ID NO. 44.

Assay [2] relates to BxPC-3 human pancreatic cancer cells. In words: BxPC3 CDX pancreatic cancer mouse efficacy model. It counts as in vivo, NPG mice. The settings on record: 5 mg/kg i.p. BIW, 6 doses, FIG. 7. As to the method:
NPG mice were used to establish a BxPC-3 pancreatic cancer animal model for assaying the efficacy of the test antibodies. The BxPC-3 human pancreatic cancer cells used in this example were incubated in an RPMI-1640 medium supplemented with 10% FBS in an incubator at 37° C. with 5% CO2. Before continuous cell culturing for ten generations, 100 μL of PBS containing about 1×10^7 BxPC-3 cells was mixed uniformly with an equal volume of Matrigel. The mixture was then inoculated by subcutaneous injection into 18 NPG mice on the right side of the back near the axilla, with an inoculation volume of about 200 μL. The mice were anesthetized with 2%-5% isoflurane prior to the inoculation. On the day of inoculation, 1.0×10^7 PBMCs (100 μL) were injected via the tail vein. When the tumors grew to an average size of about 50-80 mm^3, the 18 tumor-bearing mice were randomly divided into 3 groups of 6 based on tumor volume and body weight.
Oleclumab is an anti-CD73 monoclonal antibody developed by AstraZeneca, currently in Phase 2 clinical trials. Uliledlimab is an anti-CD73 monoclonal antibody developed by I-Mab Biopharma, currently in Phase 1 clinical trials. The amino acid sequence of the heavy chain of 900543 is as set forth in SEQ ID NO. 45, and the amino acid sequence of the light chain of 900543 is as set forth in SEQ ID NO. 46. […]

For “900201: negative control antibody, which does not bind to the CD73 antigen; heavy chain SEQ ID NO. 43, light chain SEQ ID NO. 44 [compound 900201, reference compound]”, the “inhibition of growth of MDA-MB-231 breast cancer” value in assay [1] is on record as “could not inhibit the tumor growth”. As to “900543: negative control antibody, which does not bind to the CD73 antigen; heavy chain SEQ ID NO. 45, light chain SEQ ID NO. 46 [compound 900543, reference compound]”, the “inhibition of growth of BxPC-3 pancreatic cancer” value in assay [2] is on record as “could not inhibit tumor growth”.
